Assay results published in patent US9073940B2, “Tricyclic pyrazol amine derivatives” (MERCK SERONO SA, priority 2009, dated 2015).

These compounds were tested on 4 PI3K isoforms (Human recombinant GST-PI3K) (assay: PI3K scintillation proximity assay, best IC50 obtained with the four isoforms (alpha, beta, delta, gamma)). Settings: best IC50 obtained with the four isoforms of PI3K; read-out: Best potency measured on the 4 PI3K isoforms.
Assay type: biochemical

Compound | IC50 [nM]
O=C(NC1CCOCC1)c1cccc(-n2nc(C(=O)N3CCOCC3)c3c2-c2ccccc2S(=O)(=O)C3)c1 [Example 148, 3-[3-(Morpholin-4-ylcarbonyl)-5,5-dioxidothiochromeno[4,3-c]pyrazol-1(4H)-yl]-N-(tetrahydro-2H-pyran-4-yl)benzamide] | 1260
O=C(Nc1cccnc1)c1cccc(-n2nc(C(=O)N3CCOCC3)c3c2-c2ccccc2S(=O)(=O)C3)c1 [Example 149, 3-[3-(Morpholin-4-ylcarbonyl)-5,5-dioxidothiochromeno[4,3-c]pyrazol-1(4H)-yl]-N-pyridin-3-ylbenzamide] | 926
O=C(c1nn(-c2ccccc2)c2c1CS(=O)(=O)c1ccncc1-2)N1CCOCC1 [Example 150, 3-(Morpholin-4-ylcarbonyl)-1-phenyl-1,4-dihydropyrazolo[3′,4′:4,5]thiopyrano[3,2-c]pyridine 5,5-dioxide] | 3050
CN(C)c1ccc2c(c1)S(=O)(=O)Cc1c(C(=O)N3CCOCC3)nn(-c3ccccc3)c1-2 [Example 152, N,N-Dimethyl-3-(morpholin-4-ylcarbonyl)-1-phenyl-1,4-dihydrothiochromeno[4,3-c]pyrazol-7-amine 5,5-dioxide] | 5020
O=C(c1nn(-c2ccc(CO)cc2)c2c1CS(=O)(=O)c1ccccc1-2)N1CCOCC1 [Example 153, {4-[3-(Morpholin-4-ylcarbonyl)-5,5-dioxidothiochromeno[4,3-c]pyrazol-1(4H)-yl]phenyl}methanol] | 1060
O=C(c1nn(-c2ccc(N3CCOCC3)cc2)c2c1CS(=O)(=O)c1ccccc1-2)N1CCOCC1 [Example 155, 3-(Morpholin-4-ylcarbonyl)-1-(4-morpholin-4-ylphenyl)-1,4-dihydrothiochromeno[4,3-c]pyrazole 5,5-dioxide] | 3940
COCCNc1ccc2c(c1)-c1c(c(C(=O)N3CCOCC3)nn1-c1ccccc1)CS2(=O)=O [Example 156, N-(2-Methoxyethyl)-3-(morpholin-4-ylcarbonyl)-1-phenyl-1,4-dihydrothiochromeno[4,3-c]pyrazol-8-amine 5,5-dioxide] | 902
O=C(c1nn(-c2cccc(-c3ccccc3)c2)c2c1CS(=O)(=O)c1ccccc1-2)N1CCOCC1 [Example 157, 1-Biphenyl-3-yl-3-(morpholin-4-ylcarbonyl)-1,4-dihydrothiochromeno[4,3-c]pyrazole 5,5-dioxide] | 764
O=C(c1nn(-c2ccccc2)c2c1CS(=O)(=O)c1cc(C(F)(F)F)ccc1-2)N1CCOCC1 [Example 158, 3-(Morpholin-4-ylcarbonyl)-1-phenyl-7-(trifluoromethyl)-1,4-dihydrothiochromeno[4,3-c]pyrazole 5,5-dioxide] | 3060
Cc1ccccc1-c1cccc(-n2nc(C(=O)N3CCOCC3)c3c2-c2ccccc2S(=O)(=O)C3)c1 [Example 160, 1-(2′-Methylbiphenyl-3-yl)-3-(morpholin-4-ylcarbonyl)-1,4-dihydrothiochromeno[4,3-c]pyrazole 5,5-dioxide] | 1080
Cc1ccccc1-c1ccc(-n2nc(C(=O)N3CCOCC3)c3c2-c2ccccc2S(=O)(=O)C3)cc1 [Example 161, 1-(2′-Methylbiphenyl-4-yl)-3-(morpholin-4-ylcarbonyl)-1,4-dihydrothiochromeno[4,3-c]pyrazole 5,5-dioxide] | 6470
O=C(c1nn(-c2ccccc2)c2c1CS(=O)(=O)c1ccc(CN3CCOCC3)cc1-2)N1CCOCC1 [Example 162, 3-(Morpholin-4-ylcarbonyl)-8-(morpholin-4-ylmethyl)-1-phenyl-1,4-dihydrothiochromeno[4,3-c]pyrazole 5,5-dioxide] | 1620
CC1CN(C(=O)c2nn(-c3ccccc3)c3c2CS(=O)(=O)c2ccccc2-3)CCO1 (stereo not drawn) [Example 163, 3-[(2-Methylmorpholin-4-yl)carbonyl]-1-phenyl-1,4-dihydrothiochromeno[4,3-c]pyrazole 5,5-dioxide] | 2160
Nc1ccc2c(c1)S(=O)(=O)Cc1c(C(=O)N3CCOCC3)nn(-c3ccccc3)c1-2 [Example 165, 3-(Morpholin-4-ylcarbonyl)-1-phenyl-1,4-dihydrothiochromeno[4,3-c]pyrazol-7-amine 5,5-dioxide] | 1130
O=C(c1nn(-c2cccc(Nc3ccccc3)c2)c2c1CS(=O)(=O)c1ccccc1-2)N1CCOCC1 [Example 166, {3-[3-(Morpholin-4-ylcarbonyl)-5,5-dioxidothiochromeno[4,3-c]pyrazol-1 (4H)-yl]phenyl}phenylamine] | 2700
CN(C)c1cccc(-n2nc(C(=O)N3CCOCC3)c3c2-c2ccccc2S(=O)(=O)C3)c1 [Example 177, N,N-Dimethyl-3-[3-(morpholin-4-ylcarbonyl)-5,5-dioxidothiochromeno[4,3-c]pyrazol-1 (4H)-yl]aniline] | 4720

Compounds with a lower IC50, results first:

IC50 [nM] | Compound
673 | O=C(c1nn(-c2cccc(N3CCOCC3)c2)c2c1CS(=O)(=O)c1ccccc1-2)N1CCOCC1 [Example 154, 3-(Morpholin-4-ylcarbonyl)-1-(3-morpholin-4-ylphenyl)-1,4-dihydrothiochromeno[4,3-c]pyrazole 5,5-dioxide]
540 | O=C(c1nn(C2CCCN(Cc3ccccc3)C2)c2c1CS(=O)(=O)c1ccccc1-2)N1CCOCC1 (stereo not drawn) [Example 174, 1-(1-Benzylpiperidin-3-yl)-3-(morpholin-4-ylcarbonyl)-1,4-dihydrothiochromeno[4,3-c]pyrazole 5,5-dioxide]
502 | O=C(c1cccc(-n2nc(C(=O)N3CCOCC3)c3c2-c2ccccc2S(=O)(=O)C3)c1)N1CCCC(CO)C1 (stereo not drawn) [Example 145, (1-{3-[3-(Morpholin-4-ylcarbonyl)-5,5-dioxidothiochromeno[4,3-c]pyrazol-1 (4H)-yl]benzoyl}piperidin-3-yl)methanol]
498 | CC1(C)CCCC(n2nc(C(=O)N3CCOCC3)c3c2-c2ccccc2S(=O)(=O)C3)C1 (stereo not drawn) [Example 171, 1-(3,3-Dimethylcyclohexyl)-3-(morpholin-4-ylcarbonyl)-1,4-dihydrothiochromeno[4,3-c]pyrazole 5,5-dioxide]
386 | O=C(c1nn(C2CCC(F)(F)CC2)c2c1CS(=O)(=O)c1ccccc1-2)N1CCOCC1 [Example 170, 1-(4,4-Difluorocyclohexyl)-3-(morpholin-4-ylcarbonyl)-1,4-dihydrothiochromeno[4,3-c]pyrazole 5,5-dioxide]
371 | O=C(c1cccc(-n2nc(C(=O)N3CCOCC3)c3c2-c2ccccc2S(=O)(=O)C3)c1)N1CCC(O)CC1 [Example 143, 1-{3-[3-(Morpholin-4-ylcarbonyl)-5,5-dioxidothiochromeno[4,3-c]pyrazol-1 (4H)-yl]benzoyl}piperidin-4-ol]
348 | O=C(c1cccc(-n2nc(C(=O)N3CCOCC3)c3c2-c2ccccc2S(=O)(=O)C3)c1)N1CCCC(O)C1 (stereo not drawn) [Example 144, 1-{3-[3-(Morpholin-4-ylcarbonyl)-5,5-dioxidothiochromeno[4,3-c]pyrazol-1 (4H)-yl]benzoyl}piperidin-3-ol]
319 | O=C(c1cccc(-n2nc(C(=O)N3CCOCC3)c3c2-c2ccccc2S(=O)(=O)C3)c1)N1CCS(=O)(=O)CC1 [Example 146, 1-{3-[(1,1-Dioxidothiomorpholin-4-yl)carbonyl]phenyl}-3-(morpholin-4-ylcarbonyl)-1,4-dihydrothiochromeno[4,3-c]pyrazole 5,5-dioxide]
302 | COC1CCN(C(=O)c2cccc(-n3nc(C(=O)N4CCOCC4)c4c3-c3ccccc3S(=O)(=O)C4)c2)CC1 [Example 142, 1-{3-[(4-Methoxypiperidin-1-yl)carbonyl]phenyl}-3-(morpholin-4-ylcarbonyl)-1,4-dihydrothiochromeno[4,3-c]pyrazole 5,5-dioxide]
274 | O=C(c1ccc(-n2nc(C(=O)N3CCOCC3)c3c2-c2ccccc2S(=O)(=O)C3)cc1)N1CCOCC1 [Example 147, 3-(Morpholin-4-ylcarbonyl)-1-[4-(morpholin-4-ylcarbonyl)phenyl]-1,4-dihydrothiochromeno[4,3-c]pyrazole 5,5-dioxide]
247 | O=C(c1nn(-c2ccc(CN3CCC(F)CC3)cc2)c2c1CS(=O)(=O)c1ccccc1-2)N1CCOCC1 [Example 167, 1-{4-[(4-Fluoropiperidin-1-yl)methyl]phenyl}-3-(morpholin-4-ylcarbonyl)-1,4-dihydrothiochromeno[4,3-c]pyrazole 5,5-dioxide]
246 | COC1CCCN(C(=O)c2cccc(-n3nc(C(=O)N4CCOCC4)c4c3-c3ccccc3S(=O)(=O)C4)c2)C1 (stereo not drawn) [Example 159, 1-{3-[(3-Methoxypiperidin-1-yl)carbonyl]phenyl}-3-(morpholin-4-ylcarbonyl)-1,4-dihydrothiochromeno[4,3-c]pyrazole 5,5-dioxide]
238 | O=C(c1ccc(-n2nc(C(=O)N3CCOCC3)c3c2-c2ccccc2S(=O)(=O)C3)cc1)N1CCCCC1 [Example 151, 3-(Morpholin-4-ylcarbonyl)-1-[4-(piperidin-1-ylcarbonyl)phenyl]-1,4-dihydrothiochromeno[4,3-c]pyrazole 5,5-dioxide]
140 | COCCCN1CCCC(n2nc(C(=O)N3CCOCC3)c3c2-c2ccccc2S(=O)(=O)C3)C1 (stereo not drawn) [Example 172, 1-[1-(3-Methoxypropyl)piperidin-3-yl]-3-(morpholin-4-ylcarbonyl)-1,4-dihydrothiochromeno[4,3-c]pyrazole 5,5-dioxide]
138 | CC(C)CCN1CCCC(n2nc(C(=O)N3CCOCC3)c3c2-c2ccccc2S(=O)(=O)C3)C1 (stereo not drawn) [Example 173, 1-[1-(3-Methylbutyl)piperidin-3-yl]-3-(morpholin-4-ylcarbonyl)-1,4-dihydrothiochromeno[4,3-c]pyrazole 5,5-dioxide]
122 | O=C(c1nn(C2CCCN(CCN3CCOCC3)C2)c2c1CS(=O)(=O)c1ccccc1-2)N1CCOCC1 (stereo not drawn) [Example 175, 3-(Morpholin-4-ylcarbonyl)-1-[1-(2-morpholin-4-ylethyl)piperidin-3-yl]-1,4-dihydrothiochromeno[4,3-c]pyrazole 5,5-dioxide]
110 | O=C(c1nn(-c2ccc(CN3CCCCC3)cc2)c2c1CS(=O)(=O)c1ccccc1-2)N1CCOCC1 [Example 169, 3-(Morpholin-4-ylcarbonyl)-1-[4-(piperidin-1-ylmethyl)phenyl]-1,4-dihydrothiochromeno[4,3-c]pyrazole 5,5-dioxide]
